Test system: human PBMCs
Assay: Stimulation of PBMCs with anti-CD1b antibody and/or IL-2, cytokines measured in culture supernatants
Format: cell-based
Details: PMB at 10 µg/ml (60 U/ml); anti-CD16 as Fc γ receptor blocking antibody
Text: PBMCs are then separated from whole blood or from leukapheresis products. Any method for separating mononuclear cells may be used. For example, the Ficoll separation method, i.e., a Ficoll-Paque density gradient is frequently used. For this purpose LSM1077 Lymphocyte Separation Medium (PAA, Pasching, Austria) in combination with Leucosep (greiner bio-one, Frickenhausen, Germany) can be used for the optimal separation of PBMCs.
The whole PBMCs or the CD56-positive PBMCs obtained are resuspended preferably at cell numbers of 1.0-1.5 x 10^6/ml in a cell culture medium such as RPMI-1640 (Lonza, Basel, Switzerland), AIM-V (Invitrogen, Carlsbad, CA, USA) or CellGro SCGM (CellGenix, Freiburg, Germany). The cell culture medium may be further supplemented with autologous or clinical quality heterologous serum or plasma at 1-20%. There is no limitation for the culture vessels used, which may be a plate, laboratory dish, flask, bag typically used for cell cultivation.
An antibody directed against CDlb (clone B-B5 from Diaclone, Besancon, France or clone WM25 from ImmunoKontact via AMS Biotechnology, Lugano, Switzerland) is added to these cultures. […] Activation as detected by the BD FastImmune (BD Biosciences, San Jose, CA, USA) of NK cells and T cells (both αß T cells and γδ T cells) occurs already within the first 12 to 16 hours. […]

polymyxin B [PMB]
effect on IFN-γ production / response induced by CDlb antibodies: failed to abolish

From patent EP2537923A1, “Method for activation of specific peripheral blood mononuclear cells” (Oncotyrol Center for Personalized Cancer Medicine GmbH, priority 2011, dated 2012)
